# Results as given in EP1948196B1, “USE OF TETRAORGANOSILICON COMPOUNDS” (Salama, Zoser B., priority 2005, dated 2007).
# Where two headings read alike, the source gives them in different places. Numbered stars: 1 amine (or outer) side, 2 acyl side, 3 side chain; on linkers, the order of the positions; unused ones are H or OH. Bridge positions count the residues as written; N and C are the ends. Peptide text beside a SMILES is read from it. I, II: the chains in the order shown. OSiEt2O = CC[Si](CC)(O[*:1])O[*:2]
# Key:
# [1] = system: Maus; test: Pharmacological observation in the mouse (central, vegetative and toxic effects, acute toxicity); type: in vivo; details: for oLD (orienberende letale Dosis): mouse, in vivo
# Text: Pharmakologische Untersuchungen an der Maus
# Die Verbindungen wurden an der Maus auf zentrale, vegetative und toxische Effekte geprüft. Durch systemische Einzelbeobachtungen sind neben der akuten Toxizität (orienberende letale Dosis, oLD) zentrale und vegetative Wirkungen der Testsubstanzen, insbesondere Effekte auf die Motorik und das Reaktionsvermögen, die Haut- und Rektaltemperatur sowie auf die Pupillenmotorik erfasst worden. Die getesteten Dosierungen betrugen 5 •10^-4, 1 • 10^-3 und 5 • 10^-3 mol/kg Körpergewicht Letale Wirkungen konnten bei keiner der Verbindungen beobachtet werden. Die oLD lag für Di(tetradecanoyloxy)dimethylsilan und Di(octadecanoyloxy)dimethylsilan unter 1 • 10^-3 mol/kg Körpergewicht für alle übrigen Verbindungen unter 5 • 10^-3 mollkg Körpergewicht.
# [2] = system: Basalzellkarzinome; test: Effect on basal cell carcinomas
# [3] = system: Kälber-Aortenendothelzellinie BKEz-7; test: tissue or blood; type: cell-based; details: for IC50: suspensions, 48 Stunden bei 37°C
# Text: Prüfung auf zytotoxisches Potential an Kälber-Aortenendothelzellinie BKEz-7
# Als Marker für eine zytotoxische Wirkung wird bei Zellen der charakterisierten Kälber-Aortenendothelzellinie BKEz-7 die Hemmkonzentration ermittelt, bei der eine 50%-ige Hemmung der Zellproliferation erfolgt (im Vergleich zu Kontrollkulturen ohne Zusatz eines Zellinhibitors). Die resultierende Reduzierung der Zellzahl um 50% wird als IC 50 ausgedrückt. Die getesteten Silanverbindungen wurden als Suspensionen auf die Kulturen gegeben und 48 Stunden bei 37°C inkubiert. Zusätzlich erfolgten morphologische Kontrollen und Vitalitätsbestimmungen mittels dem Neutralrot-Test. Mit Ausnahme des Di(dodecanoyloxy)dimethylsilans standen alle Ergebnisse der morphologischen Untersuchungen in guter Übereinstimmung. […]
# [4] = system: Angiosarkome; test: Effect on angiosarcomas
# [5] = system: Osteosarkome; test: Effect on osteosarcomas
# [6] = system: T47D (Brustkrebs); test: MTT test, triplicate, two-fold dilutions; type: cell-based; details: Homo sapiens, T47D, read-out: IC50 T47D
# Method: (§1) Die Silan wurden in Ethanol aufgelöst und in Zellkulturmedien in Konzentrationen von bis zu 500 µg/ml resuspendiert. Es wurden MTT Tests in dreifacher Ausführung durchgeführt, für welche doppelte Lösungen (7 Schritte) und colo205 (Kofon-Karzinom), BxPC3 (pankreatisches Adenokarzinom) sowie T47D (Brustkrebs) benutzt wurden.
# [7] = system: colo205 (Kofon-Karzinom); test: MTT test, triplicate, two-fold dilutions; type: cell-based; details: Homo sapiens
# Method: as §1
# [8] = system: BxPC3 (pankreatisches Adenokarzinom); test: MTT test, triplicate, two-fold dilutions; type: cell-based; details: Homo sapiens
# Method: as §1
# [9] = system: Lymphome; test: Effect on lymphomas
# [10] = system: Seminome; test: Effect on seminomas
# [11] = COLO 205, read-out: IC50 Colo205
structure (smiles),measurement,setting,value
CCCCCCCCCCCC(=O)O[Si](OC(=O)CCCCCCCCCCC)(c1ccccc1)c1ccccc1 [Di(dodecanoyloxy)diphenylsilan],"zentrale, vegetative und toxische Effekte (Verhaltensänderungen)",[1]; 1•10^-3 mol/kg,keine Verhaltensänderungen
same,"zentrale, vegetative und toxische Effekte (Verhaltensänderungen)",[1]; 5•10^-3 mol/kg,keine Verhaltensänderungen
same,"zentrale, vegetative und toxische Effekte (Verhaltensänderungen)",[1]; 5•10^-4 mol/kg,keine Verhältensänderungen
same,Wirkung auf Basalzellkarzinome,[2],zeigen eine Wirkung
same,Bedenkliche Toxizität,[3],-
same,IC50,[3],36 µM
CC[Si](CC)(OC(=O)CNC(=O)CNC(=O)CNC(=O)CNC(=O)CNC(=O)CNC(=O)CNC(=O)CN)OC(=O)CNC(=O)CNC(=O)CNC(=O)CNC(=O)CNC(=O)CNC(=O)CNC(=O)CN [Diethyl bis(octablycyl)silylester] (I: H-GGGGGGGG / II: H-GGGGGGGG; linker I:C-II:C via OSiEt2O),Wirkung gegen Angiosarkome,[4],zeigen eine Wirkung
CCCCCCCC(=O)O[Si](OC(=O)CCCCCCC)(c1ccccc1)c1ccccc1 [Di(octanoyloxy)diphenylsilan],"zentrale, vegetative und toxische Effekte (Verhaltensänderungen)",[1]; 1•10^-3 mol/kg,"Ataxie, Hyper-aktivität"
same,"zentrale, vegetative und toxische Effekte (Verhaltensänderungen)",[1]; 5•10^-3 mol/kg,"schwache Ataxie, Hyperaktivität"
same,"zentrale, vegetative und toxische Effekte (Verhaltensänderungen)",[1]; 5•10^-4 mol/kg,schwache Hyperaktivität
same,Wirkung auf Basalzellkarzinome,[2],zeigen eine Wirkung
same,Bedenkliche Toxizität,[3],-
same,IC50,[3],> 20 µM
CCCCCCCCCCCCCCCCCC(=O)O[Si](C)(C)OC(=O)CCCCCCCCCCCCCCCCC [Di(octadecanoyloxy)dimethylsilan],Wirkung auf Osteosarkome,[5],zeigen eine Wirkung
same,"zentrale, vegetative und toxische Effekte (Verhaltensänderungen)",[1]; 1•10^-3 mol/kg,keine Verhaltensänderungen
same,"zentrale, vegetative und toxische Effekte (Verhaltensänderungen)",[1]; 5•10^-4 mol/kg,keine Verhaltensänderungen
same,oLD (orienberende letale Dosis),[1],< 1 • 10^-3 mol/kg Körpergewicht
same,Bedenkliche Toxizität,[3],-
same,IC50,[3],495 µM
C[C@H](N)C(=O)N[C@@H](C)C(=O)N[C@@H](C)C(=O)N[C@@H](C)C(=O)N[C@@H](C)C(=O)N[C@@H](C)C(=O)N[C@@H](C)C(=O)N[C@@H](C)C(=O)N[C@@H](C)C(=O)N[C@@H](C)C(=O)O[Si](OC(=O)[C@H](C)NC(=O)[C@H](C)NC(=O)[C@H](C)NC(=O)[C@H](C)NC(=O)[C@H](C)NC(=O)[C@H](C)NC(=O)[C@H](C)NC(=O)[C@H](C)NC(=O)[C@H](C)NC(=O)[C@H](C)N)(c1ccccc1)c1ccccc1 [Diphenyl bis(decaalanyl)silylester],Wirkung gegen Angiosarkome,[4],zeigen eine Wirkung
"CCCCCCCCCCCCCCCC(=O)O[Si](OC(=O)CCCCCCCCCCCCCCC)(c1ccccc1)c1ccccc1 [Si 8, Di (hexadecanoyloxy) diphenylsilan]","zentrale, vegetative und toxische Effekte (Verhaltensänderungen)",[1]; 1•10^-3 mol/kg,keine Verhaltensänderungen
same,"zentrale, vegetative und toxische Effekte (Verhaltensänderungen)",[1]; 5•10^-3 mol/kg,"schwache Ataxie, Hyperaktivität und Piloerektion, Straubtail"
same,"zentrale, vegetative und toxische Effekte (Verhaltensänderungen)",[1]; 5•10^-4 mol/kg,keine Verhaltensänderungen
same,IC50,[6]; up to 500 µg/ml,20 mg/L
same,IC50,"[7]; COLO 205, up to 500 µg/ml, read-out: IC50 Colo205",300 mg/L
same,IC50,"[8]; BXPC-3, up to 500 µg/ml, read-out: IC50 BxPC3",30 mg/L
same,Wirkung auf Basalzellkarzinome,[2],zeigen eine Wirkung
CCCCCCCCCCCCCCCCCC(=O)O[Si](OC(=O)CCCCCCCCCCCCCCCCC)(C(C)C)C(C)C [Di(octadecanoyloxy)diisopropylsilan],Wirkung auf Lymphome,[9],zeigen eine Wirkung
CCCCCCCCCCC(=O)O[Si](CCC)(CCC)OC(=O)CCCCCCCCCC [Di(undecanoyloxy) dipropylsilan],Wirkung auf Seminome,[10],zeigen eine Wirkung
CCCCCCCCC(=O)O[Si](CCC)(CCC)OC(=O)CCCCCCCC [Di(nonanoyloxy)dipropylsilan],Wirkung auf Seminome,[10],zeigen eine Wirkung
"CCCCCCCCCCCCC(=O)O[Si](CC)(CC)OC(=O)CCCCCCCCCCCC [Si 6, Di (tridecanoyloxy) diethylsilan]",IC50,[6],250 mg/L
same,IC50,[7]; [11],240 mg/L
same,IC50,"[8]; BXPC-3, read-out: IC50 BxPC3",150 mg/L
CCCCCCCCCCCCCCCCC(=O)O[Si](OC(=O)CCCCCCCCCCCCCCCC)(C(C)C)C(C)C [Di(heptadecanoyloxy)diisopropylsilan],Wirkung auf Lymphome,[9],zeigen eine Wirkung
CCCCC/C=C\C/C=C\CCCCCCCC(=O)O[Si](C)(C)OC(=O)CCCCCCC/C=C\C/C=C\CCCCC [Di(linoylooxy)dimethylsilan],Wirkung auf Lymphome,[9],zeigen eine Wirkung
CCCCCCCC(=O)O[Si](C)(C)OC(=O)CCCCCCC [Di(octanoyloxy)dimethylsilan],Wirkung auf Osteosarkome,[5],zeigen eine Wirkung
CCCCCCCC/C=C\CCCCCCCC(=O)O[Si](C)(C)OC(=O)CCCCCCC/C=C\CCCCCCCC,Wirkung auf Lymphome,[9],zeigen eine Wirkung
CCCCC/C=C\C/C=C\CCCCCCCC(=O)O[Si](CC)(CC)OC(=O)CCCCCCC/C=C\C/C=C\CCCCC [Di(linoylooxy)diethylsilan],Wirkung auf Lymphome,[9],zeigen eine Wirkung
CCCCCCCCCC(=O)O[Si](C)(C)OC(=O)CCCCCCCCC [Di(decanoyloxy)dimethylsilan],Wirkung auf Osteosarkome,[5],zeigen eine Wirkung
same,"zentrale, vegetative und toxische Effekte (Verhaltensänderungen)",[1]; 1•10^-3 mol/kg,Piloerektion
same,"zentrale, vegetative und toxische Effekte (Verhaltensänderungen)",[1]; 5•10^-3 mol/kg,schwach bis mäßig ausgeprägte Verhaltensänderung en
same,"zentrale, vegetative und toxische Effekte (Verhaltensänderungen)",[1]; 5•10^-4 mol/kg,keine Verhaltensänderungen
CCCCCCCCCC(=O)O[Si](CCC)(CCC)OC(=O)CCCCCCCCC [Di(decanoyloxy)dipropylsilan],Wirkung auf Seminome,[10],zeigen eine Wirkung
CCCCCCCCCCCCCC(=O)O[Si](C)(C)OC(=O)CCCCCCCCCCCCC [Di(tetradecanoyloxy)dimethylsilan],Wirkung auf Osteosarkome,[5],zeigen eine Wirkung
same,"zentrale, vegetative und toxische Effekte (Verhaltensänderungen)",[1]; 1•10^-3 mol/kg,Ataxie
same,"zentrale, vegetative und toxische Effekte (Verhaltensänderungen)",[1]; 5•10^-4 mol/kg,"schwache Ataxie, Piloerektion"
same,oLD (orienberende letale Dosis),[1],< 1 • 10^-3 mol/kg Körpergewicht
same,Bedenkliche Toxizität,[3],-
same,IC50,[3],110 µM
"CCCCCCCCCCCCCC(=O)O[Si](CC)(CC)OC(=O)CCCCCCCCCCCCC [Si 14, Di (tetradecanoyloxy) diethylsilan]",IC50,[6],65 mg/L
same,IC50,[7]; [11],250 mg/L
same,IC50,"[8]; BXPC-3, read-out: IC50 BxPC3",70 mg/L
CC/C=C\C/C=C\C/C=C\CCCCCCCC(=O)O[Si](C)(C)OC(=O)CCCCCCC/C=C\C/C=C\C/C=C\CC [Di (lino-lenoylooxy)dimethylsilan],Wirkung auf Lymphome,[9],zeigen eine Wirkung
CCCCCCCCC(=O)O[Si](C)(C)OC(=O)CCCCCCCC [Di(nonanoyloxy)dimethylsilan],Wirkung auf Osteosarkome,[5],zeigen eine Wirkung
CCCCCCCCCC(=O)O[Si](OC(=O)CCCCCCCCC)(c1ccccc1)c1ccccc1 [Di(decanoyloxy)diphenylsilan],"zentrale, vegetative und toxische Effekte (Verhaltensänderungen)",[1]; 1•10^-3 mol/kg,keine Verhaltensänderungen
same,"zentrale, vegetative und toxische Effekte (Verhaltensänderungen)",[1]; 5•10^-3 mol/kg,schwache Ataxie
same,"zentrale, vegetative und toxische Effekte (Verhaltensänderungen)",[1]; 5•10^-4 mol/kg,keine Verhaltensänderungen
same,Wirkung auf Basalzellkarzinome,[2],zeigen eine Wirkung
same,Bedenkliche Toxizität,[3],-
same,IC50,[3],14 µM
